Measurements reported in patent US20250368640A1 (BIOFRONT LTD, priority 2022, published 2025).
Where two headings read alike, the source gives them in different places.

Key:
[1] = test system: MEK 1/2; assay: MEK 1/2 degradation assay (western blot); type: cell-based, human
Procedure: MEK 1/2 Degradation Assay
(§1) MV-411 cells were cultured with medium (IMDM) and IMR32 cells were cultured with medium (MEM) prior to use. Cells were then incubated with a variety of concentrations of compound. After incubation, the cells were collected and lysed. The protein concentration was determined by BCA protein assay kit from Thermo (23227). The […] protein level was determined by western blots, using anti-human MEK 1/2 polyclonal antibody from CST (9122S). Proteins were loaded into each well of the pre-casting gels and subjected to electrophoretic separation by SDS-PAGE. The protein resolved by SDS-PAGE were transferred to PVDF, blocked by 5% skim milk, and probed with anti-human MEK1/2 antibody or β-actin antibody from CST (3700S) and COX IV antibody from CST (4850S), using standard western blotting procedure.

[2] = molecular target: T1, HPK1 (Homo sapiens (Human), UniProt Q92918); assay: HPK1 enzyme inhibition assay (ADP-Glo); type: biochemical
Procedure: HPK1 Enzyme Inhibition Assay
The compound was dissolved in 100% DMSO at the concentration of 10 mM. The HPK1 protein was purchased from Signal Chem (M23-11G-10). 2.5 μL per well of 2×HPK1 protein was added to assay plate containing the test compound, centrifuged at 1500 rpm for 1 minute, and then incubated at 25° C. for 60 minutes. MBP protein was purchased from Signal Chem (M42-51N) and ATP was purchased from Promega (V9102). The two were added 2.5 μL per well mixture of 2×MBP (0.2 ug/ul) and ATP (20 μM), centrifuged at 1500 rpm for 1 minute, then incubated at 25° C. for 60 minutes. Then added 5 μL of ADP-Glo from Promega (V9102) to the assay plate and depleted the unconsumed ATP for 60 minutes. Then centrifuged at 1500 rpm for 1 minute and incubated at 25° C. for 60 minutes. Finally, 10 μL of the kinase assay reagent from Promega (V9102) was added to the assay plate to convert ADP to ATP, centrifuged at 1500 rpm for 1 minute, incubate at 25° C. for 40 minutes. After 40 minutes incubation, the […] was determined. Based on the results, the IC50 value of the compound was calculated.
Target sequence in this assay (Q92918 1-346 limits assumed): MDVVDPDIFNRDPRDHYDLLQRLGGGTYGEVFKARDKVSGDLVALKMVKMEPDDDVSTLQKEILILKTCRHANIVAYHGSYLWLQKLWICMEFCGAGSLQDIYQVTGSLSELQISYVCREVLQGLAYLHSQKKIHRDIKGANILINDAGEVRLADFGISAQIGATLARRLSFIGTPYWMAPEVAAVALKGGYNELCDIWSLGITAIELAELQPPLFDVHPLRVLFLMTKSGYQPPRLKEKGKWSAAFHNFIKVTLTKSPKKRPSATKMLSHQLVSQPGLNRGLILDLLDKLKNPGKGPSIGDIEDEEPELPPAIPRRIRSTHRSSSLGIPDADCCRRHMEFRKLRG

[3] = molecular target: FLT3-ITD (Homo sapiens, UniProt P36888, ITD); assay: FLT3-ITD enzyme inhibition assay; type: biochemical
Procedure: FLT3-ITD Enzyme Inhibition Assay
The compound was dissolved in 100% DMSO at the concentration of 10 mM. The FLT3-ITD protein was purchased from Invitrogen (PV6191). 10 μL per well of 2.5×FLT3-ITD protein was added to assay plate containing the test compound, centrifuged at 1000 rpm for 1 minute, and then incubated at 25° C. for 10 minutes. Peptide 2 was purchased from GL Biochem (112394) and ATP was purchased from Promega (V9102). The two were added 15 μL per well mixture of 1.67× peptide 2 (final conc. is 3 μM) and ATP (final conc. is 97.2 μM), centrifuged at 1000 rpm for 1 minute, then incubated at 25° C. for 40 minutes. Then added 30 μL of stop buffer (100 mM HEPES pH7.5, 0.015% Brij-35, 0.2% Coating Reagent 3, 50 mM EDTA) to the assay plate and centrifuged at 1000 rpm for 1 minute. the product was determined. Based on the results, the IC50 value of the compound was calculated.

[4] = test system: FLT3; assay: FLT3 degradation assay (western blot, MV-411 cells); type: cell-based, human
Procedure: as §1, with “(IMDM)” for “(IMDM) and IMR32 cells were cultured with medium (MEM)”, “FLT3 monoclonal” for “MEK 1/2 polyclonal”, “(3462S).” for “(9122S).”, “FLT3” for “MEK1/2”, “-actin” for “β-actin”, “(3700S),” for “(3700S) and COX IV antibody from CST (4850S),”

[5] = molecular target: T1, HPK1; assay: HPK1 degradation assay (western blot, human PBMC); type: cell-based; conditions: for Dmax: read-out: HPK1 Dmax
Procedure: Frozen human PBMC were purchased from Shanghai OribioTech and recovered with culture medium (RMPI1640) prior to use. The cells were then incubated with a variety of concentrations of compound. After incubation, the cells were collected and lysed. The protein concentration was determined by BCA protein assay kit from Thermo (23227). The HPK1 protein level was determined by western blots, using anti-human HPK1 polyclonal antibody from CST (4472S). Proteins were loaded into each well of the pre-casting gels and subjected to electrophoretic separation by SDS-PAGE. The protein resolved by SDS-PAGE were transferred to PVDF, blocked by 5% skim milk, and probed with anti-human HPK1 antibody or β-actin antibody from CST (3700S), using standard western blotting procedure.
Target sequence in this assay (Q92918 whole entry): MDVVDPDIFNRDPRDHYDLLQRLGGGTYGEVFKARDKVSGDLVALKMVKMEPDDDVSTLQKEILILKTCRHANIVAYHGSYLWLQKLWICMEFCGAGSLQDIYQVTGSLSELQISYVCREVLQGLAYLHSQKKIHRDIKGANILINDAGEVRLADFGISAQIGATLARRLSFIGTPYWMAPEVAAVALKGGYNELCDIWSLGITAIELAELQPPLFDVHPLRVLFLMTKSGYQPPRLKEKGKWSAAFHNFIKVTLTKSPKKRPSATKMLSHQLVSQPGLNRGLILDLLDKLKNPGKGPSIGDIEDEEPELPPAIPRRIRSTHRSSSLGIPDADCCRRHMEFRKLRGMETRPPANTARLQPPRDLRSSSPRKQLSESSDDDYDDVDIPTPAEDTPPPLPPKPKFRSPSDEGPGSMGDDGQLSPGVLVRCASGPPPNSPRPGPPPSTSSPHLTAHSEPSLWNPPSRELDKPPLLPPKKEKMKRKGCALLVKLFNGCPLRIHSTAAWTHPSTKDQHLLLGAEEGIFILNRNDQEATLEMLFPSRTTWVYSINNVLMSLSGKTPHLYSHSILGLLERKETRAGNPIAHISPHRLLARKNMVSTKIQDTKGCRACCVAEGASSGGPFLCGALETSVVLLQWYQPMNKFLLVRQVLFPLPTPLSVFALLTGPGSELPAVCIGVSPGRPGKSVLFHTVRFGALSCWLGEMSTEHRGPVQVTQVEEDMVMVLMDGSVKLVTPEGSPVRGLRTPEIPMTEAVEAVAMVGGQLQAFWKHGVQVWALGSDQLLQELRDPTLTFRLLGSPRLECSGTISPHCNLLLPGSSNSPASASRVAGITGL

[6] = molecular target: T2, Aurora A (Homo sapiens (Human), UniProt O14965); assay: Aurora A enzyme inhibition assay; type: biochemical
Procedure: Aurora A Enzyme Inhibition Assay
The compound was dissolved in 100% DMSO at the concentration of 10 mM. The Aurora A protein was purchased from Carna (05-101). 10 μL per well of 2.5×Aurora A protein was added to assay plate containing the test compound, centrifuged at 1000 rpm for 1 minute, and then incubated at 25° C. for 10 minutes. Peptide 21 was purchased from GL Biochem (116370) and ATP was purchased from Promega (V9102). The two were added 15 μL per well mixture of 1.67× peptide 21 (final conc. is 3 μM) and ATP (final conc. is 14.58 μM), centrifuged at 1000 rpm for 1 minute, then incubated at 25° C. for 40 minutes. Then added 30 μL of stop buffer (100 mM HEPES pH7.5, 0.015% Brij-35, 0.2% Coating Reagent 3, 50 mM EDTA) to the assay plate and centrifuged at 1000 rpm for 1 minute. the product was determined. Based on the results, the IC50 value of the compound was calculated.

[7] = molecular target: T2, Aurora A; assay: Aurora A degradation assay (western blot); type: cell-based; conditions: for DC50: read-out: Aurora A DC50; for Dmax: read-out: Aurora A Dmax
Procedure: Aurora A Degradation Assay
IMR32 cells were cultured with medium (MEM), Huh7 cells were cultured with medium (DMEM) and HL-60 cells were culture with medium (IMDM) prior to use. Cells were then incubated with a variety of concentrations of compound. After incubation, the cells were collected and lysed. The protein concentration was determined by BCA protein assay kit from Thermo (23227). The AURKA protein level was determined by western blots, using anti-human AURKA monoclonal antibody from CST (14475S). Proteins were loaded into each well of the pre-casting gels and subjected to electrophoretic separation by SDS-PAGE. The protein resolved by SDS-PAGE were transferred to PVDF, blocked by 5% skim milk, and probed with anti-human AURKA antibody or β-actin antibody from CST (3700S) or COX IV antibody from CST (4850S), using standard western blotting procedure.

[8] = protein degradation, MV-411 or IMR32 cells
[9] = read-out: MEK 1/2 DC50; protein degradation, MV-411 or IMR32 cells
[10] = read-out: FLT3 DC50, protein degradation
[11] = protein degradation, human PBMC, read-out: HPK1 DC50
[12] = protein degradation, IMR32, Huh7 or HL-60 cells
[13] = enzyme inhibition, read-out: FLT3-ITD IC50
[14] = protein degradation, MV-411 or IMR32 cells; read-out: MEK 1/2 DC50
[15] = protein degradation, class symbol, read-out: FLT3 DC50 (nM)/Dmax (%)
[16] = protein degradation, human PBMC

Chain of FLT3-ITD (P36888 whole entry, looked up, change not shown): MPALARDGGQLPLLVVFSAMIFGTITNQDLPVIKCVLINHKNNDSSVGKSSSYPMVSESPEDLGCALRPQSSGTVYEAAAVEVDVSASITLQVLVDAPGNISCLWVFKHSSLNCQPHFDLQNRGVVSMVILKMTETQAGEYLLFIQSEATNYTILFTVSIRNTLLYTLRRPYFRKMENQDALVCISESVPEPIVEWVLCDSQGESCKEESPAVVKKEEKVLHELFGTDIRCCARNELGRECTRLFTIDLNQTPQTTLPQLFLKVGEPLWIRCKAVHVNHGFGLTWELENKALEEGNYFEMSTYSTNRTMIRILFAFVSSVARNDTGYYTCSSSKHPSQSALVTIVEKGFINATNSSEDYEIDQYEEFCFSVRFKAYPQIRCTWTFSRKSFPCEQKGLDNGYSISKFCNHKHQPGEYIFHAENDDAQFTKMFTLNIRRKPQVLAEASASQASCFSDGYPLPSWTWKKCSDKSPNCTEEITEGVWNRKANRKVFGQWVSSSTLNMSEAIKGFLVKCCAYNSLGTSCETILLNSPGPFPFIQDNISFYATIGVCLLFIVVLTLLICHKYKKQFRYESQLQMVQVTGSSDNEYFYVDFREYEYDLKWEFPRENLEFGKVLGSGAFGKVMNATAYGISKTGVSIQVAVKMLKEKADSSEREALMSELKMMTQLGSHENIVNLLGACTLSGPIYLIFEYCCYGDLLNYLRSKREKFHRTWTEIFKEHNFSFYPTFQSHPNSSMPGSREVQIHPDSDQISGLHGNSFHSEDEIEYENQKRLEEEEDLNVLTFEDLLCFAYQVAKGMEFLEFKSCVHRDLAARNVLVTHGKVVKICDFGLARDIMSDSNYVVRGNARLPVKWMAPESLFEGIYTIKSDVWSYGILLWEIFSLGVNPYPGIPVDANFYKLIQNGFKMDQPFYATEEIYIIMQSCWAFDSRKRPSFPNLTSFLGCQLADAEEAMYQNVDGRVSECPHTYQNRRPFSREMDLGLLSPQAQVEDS
T2 sequence (O14965 whole entry): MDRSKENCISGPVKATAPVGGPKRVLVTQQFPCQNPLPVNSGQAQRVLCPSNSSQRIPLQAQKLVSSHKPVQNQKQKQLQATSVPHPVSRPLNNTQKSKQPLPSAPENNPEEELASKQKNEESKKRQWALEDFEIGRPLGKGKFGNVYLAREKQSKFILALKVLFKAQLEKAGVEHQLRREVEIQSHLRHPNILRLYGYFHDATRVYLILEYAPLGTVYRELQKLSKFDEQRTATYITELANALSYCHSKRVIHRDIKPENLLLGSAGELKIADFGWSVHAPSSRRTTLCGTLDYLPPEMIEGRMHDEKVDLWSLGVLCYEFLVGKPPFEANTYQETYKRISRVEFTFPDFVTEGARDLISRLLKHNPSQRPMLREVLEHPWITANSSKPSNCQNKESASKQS

SMILES	IC50 [3, 13] [nM]	DC50 [1, 14] [nM]	DC50 [4, 15] [nM]	DC50 ([5]; protein degradation, human PBMC, class symbol, read-out: HPK1 DC50 (nM)/Dmax (%)) [nM]	Dmax [7, 12] [%]	Dmax [5, 16] [%]	DC50 ([4]; protein degradation, read-out: FLT3 DC50) [nM]	MEK 1/2 Dmax [1, 8] [%]	DC50 [1, 9] [nM]	IC50 [2] [nM]	IC50 [3] [nM]	FLT3 Dmax ([4]; protein degradation) [%]	DC50 [4, 10] [nM]	DC50 [5, 11] [nM]	Dmax [5] [%]	IC50 [6] [nM]	DC50 [7, 12] [nM]	Dmax [7] [%]	DC50 ([1]; read-out: MEK 1/2 DC50 (nM)/Dmax (%); protein degradation, MV-411 or IMR32 cells; class symbol) [nM]
CCc1c[nH]c2ncc(-c3cccc(N4CCCN(CC5CCN(c6ccc7c(c6)C(=O)N(C6CCC(=O)NC6=O)C7=O)CC5)C4=O)c3)c(Cl)c12 (centres unmarked) [Example 8, 5-(4-((3-(3-(4-chloro-3-ethyl-1H-pyrrolo [2,3-b]pyridin-5-yl)phenyl)-2-oxotetrahydropyrimidin-1 (2H)-yl)methyl)piperidin-1-yl)-2-(2,6-dioxopiperidin-3-yl) isoindoline-1,3-dione]								91	82	15.7	5.7	95	8	85	95	110	< 20	95	
O=C1CCC(N2C(=O)c3cc(F)c(N4CCC(CCN5CCCN(c6cccc(-c7cnc8[nH]cc(C9CC9)c8c7Cl)c6)C5=O)CC4)cc3C2=O)C(=O)N1 (centres unmarked) [Example 9, 5-(4-(2-(3-(3-(4-chloro-3-cyclopropyl-1H-pyrrolo [2,3-b]pyridin-5-yl)phenyl)-2-oxotetrahydropyrimidin-1 (2H)-yl)ethyl)piperidin-1-yl)-2-(2,6-dioxopiperidin-3-yl)-6-fluoroisoindoline-1,3-dione]	36.5									62.9		60	100	294	50	131	> 1000	50	> 10000
O=C1CCC(N2Cc3ccc(N4CCC(CN5CCCN(c6cccc(-c7cnc8[nH]cc(C9CC9)c8c7Cl)c6)C5=O)CC4)cc3C2=O)C(=O)N1 (centres unmarked) [Example 11]	20.8	49	> 10000	> 10000	50			30		13.6						21.2	9		
CCc1c[nH]c2ncc(-c3cccc(N4CCCN(CC5CCN(c6ccc(NC7CCC(=O)NC7=O)cc6F)CC5)C4=O)c3)c(Cl)c12 (centres unmarked) [Example 15, 3-((4-(4-((3-(3-(4-chloro-3-ethyl-1H-pyrrolo [2,3-b]pyridin-5-yl)phenyl)-2-oxotetrahydropyrimidin-1 (2H)-yl)methyl)piperidin-1-yl)-3-fluorophenyl)amino) piperidine-2,6-dione]								38	1	4.6	8.8	34	0.02	6	80	19.9	9.6	82	
CCc1c[nH]c2ncc(-c3cccc(N4CCCN(CCC5CCN(c6ccc(NC7CCC(=O)NC7=O)cc6F)CC5)C4=O)c3)c(Cl)c12 (centres unmarked) [Example 16, 3-((4-(4-(2-(3-(3-(4-chloro-3-ethyl-1H-pyrrolo [2,3-b]pyridin-5-yl)phenyl)-2-oxotetrahydropyrimidin-1 (2H)-yl)ethyl)piperidin-1-yl)-3-fluorophenyl)amino) piperidine-2,6-dione]								75	4.6	5.5	12.3	17	115	100	64	40.8	4.6	75	

Continued, in another order:

IC50 [3, 13] [nM]	DC50 [1, 14] [nM]	DC50 [4, 15] [nM]	DC50 ([5]; protein degradation, human PBMC, class symbol, read-out: HPK1 DC50 (nM)/Dmax (%)) [nM]	Dmax [7, 12] [%]	Dmax [5, 16] [%]	DC50 ([4]; protein degradation, read-out: FLT3 DC50) [nM]	SMILES	MEK 1/2 Dmax [1, 8] [%]	DC50 [1, 9] [nM]	IC50 [2] [nM]	IC50 [3] [nM]	FLT3 Dmax ([4]; protein degradation) [%]	DC50 [4, 10] [nM]	DC50 [5, 11] [nM]	Dmax [5] [%]	IC50 [6] [nM]	DC50 [7, 12] [nM]	Dmax [7] [%]	DC50 ([1]; read-out: MEK 1/2 DC50 (nM)/Dmax (%); protein degradation, MV-411 or IMR32 cells; class symbol) [nM]
23.8	< 1	> 10000		70	50		O=C1CCC(N2Cc3ccc(N4CCC(CN5CCCN(c6cccc(-c7cnc8[nH]cc(CC(F)F)c8c7Cl)c6)C5=O)CC4)cc3C2=O)C(=O)N1 (centres unmarked) [Example 13]	30		12.5				11		14.3	3		
17.4	1			50	91	8.7	CCc1c[nH]c2ncc(-c3cccc(N4CCCN(CCN5CCN(c6ccc(C7CCC(=O)NC7=O)cc6)CC5)C4=O)c3)c(Cl)c12 (centres unmarked) [Example 17]	47		2.9		80		2.3		16.6	1		
5.4	1	> 10000		74	52		CCc1c[nH]c2ncc(-c3cccc(N4CCCN(CCN5CCN(c6ccc(NC7CCC(=O)NC7=O)cc6F)CC5)C4=O)c3)c(Cl)c12 (centres unmarked) [Example 18]	74		2.5				1		10.6	1.1		
